Values joined by “and” are separate entries in the source; they are usually repeats but may differ in a detail not shown here. Identical values can stand only once.
Assays:
Assay type in all cases: biochemical
hCA I = hCA I (Homo sapiens, UniProt P00915); assay: biochemical; settings: for Ki: Lineweaver–Burk plots, three concentrations
Description: (§1) CA isoenzymes (CA I and CA II) were purified using a Sepharose-4B-L tyrosine-sulphanilamide affinity chromatography. Activities of CA isoenzymes were determined according to method by Verpoorte et al.. […] The experimental procedure was given in detail in our previous papers. SSpectrophotometry-based Ellman’s method was used to test the compounds’ AChE inhibitory effects. Acetylthiocholine iodide (AChI) was used as a substrate of the reaction. 5,5-dithiobis(2-nitro-benzoic acid) (DTNB) was used for the determination of the AChE activities. An activity (%)-[Compound] graph was drawn to calculate the inhibition effects of the compounds on CAs and AChE. The IC50 values were obtained from activity (%) versus compounds plots. Three different concentrations were used to calculate Ki values. The Lineweaver–Burk plots were drawn, and calculations were realized as described.

hCA II = hCA II (Homo sapiens, UniProt P00918); assay: biochemical; settings: for Ki: Lineweaver–Burk plots, three concentrations
Description: as §1

AChE = AChE (Electrophorus electricus, UniProt O42275); assay: AChE inhibition (Ellman's method); settings: in terms of Ki value
Chain of AChE (O42275 24-633): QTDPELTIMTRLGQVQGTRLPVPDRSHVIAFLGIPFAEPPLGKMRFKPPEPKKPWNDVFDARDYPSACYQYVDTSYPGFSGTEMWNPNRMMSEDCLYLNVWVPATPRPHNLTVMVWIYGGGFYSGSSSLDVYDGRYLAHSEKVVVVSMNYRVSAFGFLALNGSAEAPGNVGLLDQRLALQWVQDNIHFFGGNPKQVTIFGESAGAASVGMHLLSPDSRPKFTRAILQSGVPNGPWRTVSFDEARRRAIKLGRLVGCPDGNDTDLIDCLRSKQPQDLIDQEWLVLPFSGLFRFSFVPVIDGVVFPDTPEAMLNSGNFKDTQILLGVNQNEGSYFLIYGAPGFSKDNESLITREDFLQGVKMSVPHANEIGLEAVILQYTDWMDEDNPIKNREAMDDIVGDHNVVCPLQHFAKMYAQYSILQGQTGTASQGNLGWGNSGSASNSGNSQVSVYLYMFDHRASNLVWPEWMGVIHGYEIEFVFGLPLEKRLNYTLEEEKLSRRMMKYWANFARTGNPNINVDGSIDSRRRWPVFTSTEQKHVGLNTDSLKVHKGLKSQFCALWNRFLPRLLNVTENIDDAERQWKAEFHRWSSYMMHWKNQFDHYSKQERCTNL
Description: as §1

Chain of hCA I (P00915 whole entry): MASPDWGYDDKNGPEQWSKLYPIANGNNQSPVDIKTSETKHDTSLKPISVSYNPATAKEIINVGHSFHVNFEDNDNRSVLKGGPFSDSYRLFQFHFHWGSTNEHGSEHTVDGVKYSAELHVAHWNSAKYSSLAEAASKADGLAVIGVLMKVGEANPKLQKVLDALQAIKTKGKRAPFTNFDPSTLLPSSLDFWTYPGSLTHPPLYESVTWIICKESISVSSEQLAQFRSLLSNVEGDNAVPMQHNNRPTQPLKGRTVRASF

SMILES	IC50 (hCA I)	Ki (hCA I)	times more potent than AZA toward hCA I (hCA I; based on Ki values)	IC50 (hCA II)	Ki (hCA II)	times more potent than AZA toward hCA II (hCA II; based on Ki values)	times more potent than compound 2 on hCA II (hCA II; based on Ki values)	times more potent than 3e on AChE (AChE)	times more potent than 3g on AChE (AChE)	times more potent than 3e on hCA I (hCA I; based on Ki values)	times more potent than compound 2 on hCA I (hCA I; based on Ki values)
COc1ccc(/C=C(\NC(=O)c2ccccc2)C(=O)Nc2ccc(S(=O)(=O)NC(C)=O)cc2)cc1 [3a]	27.7 nM	17.6 ± 4.72 nM	1.7 ×	20.4 nM	18.7 ± 1.59 nM	1.2 ×	–	–	–	–	–
COc1ccc(/C=C(\NC(=O)c2ccccc2)C(=O)Nc2ccc(S(=O)(=O)NC(=N)N)cc2)cc1 [3b]	19.8 nM	29.7 ± 3.18 nM	–	24.8 nM	12.6 ± 2.54 nM	1.8 ×	–	–	–	–	–
COc1ccc(/C=C(\NC(=O)c2ccccc2)C(=O)Nc2ccc(S(N)(=O)=O)cc2)cc1 [3c]	20.4 nM	6.33 ± 0.51 nM	4.8 ×	30.1 nM	10.7 ± 0.98 nM	2.1 × and 2 ×	5.8 ×	–	–	–	–
COc1ccc(/C=C(\NC(=O)c2ccccc2)C(=O)Nc2ccc(S(=O)(=O)Nc3nccs3)cc2)cc1 [3d]	22.4 nM	9.16 ± 0.46 nM	3.3 ×	21 nM	16.9 ± 3.76 nM	1.3 ×	–	–	–	–	–
COc1ccc(/C=C(\NC(=O)c2ccccc2)C(=O)Nc2ccc(S(=O)(=O)Nc3ncccn3)cc2)cc1 [3e]	25.7 nM	8.02 ± 0.88 nM	3.8 ×	25.7 nM	37.2 ± 7.55 nM	–	–	–	–	–	–
COc1ccc(/C=C(\NC(=O)c2ccccc2)C(=O)Nc2ccc(S(=O)(=O)Nc3nccc(C)n3)cc2)cc1 [3f]	28.9 nM	11.3 ± 1.7 nM	2.7 ×	24.8 nM	21.4 ± 3.47 nM	–	–	3.8 ×	1.5 ×	–	–
COc1ccc(/C=C(\NC(=O)c2ccccc2)C(=O)Nc2ccc(S(=O)(=O)Nc3nc(C)cc(C)n3)cc2)cc1 [3g]	21 nM	4.07 ± 0.38 nM	7.5 ×	26.7 nM	14.9 ± 3.1 nM	1.5 ×	–	–	–	2 ×	12.4 ×
COc1ccc(C=C2N=C(c3ccccc3)OC2=O)cc1 [compound 2, 4-(4-methoxybenzylidene)-2-phenyloxazol-5(4H)-one]	40.8 nM	50.3 ± 1.59 nM	–	46.2 nM	62.5 ± 11.5 nM	–	–	–	–	–	–

From paper PMC7763114, “Synthesis and pharmacological effects of novel benzenesulfonamides carrying benzamide moiety as carbonic anhydrase and acetylcholinesterase inhibitors” (Turkish Journal of Chemistry, 2020)
